# Data reported in the supplement of paper PMC10307832.
# Columns and labels:
# Assay in all cases: relative viability (nuclei count vs DMSO), 5 days (fraction); higher = more cells survive
# [1] = compound: COc1cc([C@@H]2c3cc4c(cc3[C@@H](O[C@@H]3O[C@@H]5CO[C@@H](C)O[C@H]5[C@H](O)[C@H]3O)[C@H]3COC(=O)[C@H]23)OCO4)cc(OC)c1O [Etoposide] + O=C(c1cc(Cc2n[nH]c(=O)c3ccccc23)ccc1F)N1CCN(C(=O)C2CC2)CC1 [Olaparib] (partner 8 µM)
# Procedure, shortened: (§1)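 Lung cancer cell lines were seeded in 1536-well plates and dosed by pin tool the next day, with either a single drug or a fixed anchor-drug dose combined with five library-drug doses (not always all listed) spaced in √10 steps. Five days later, one step fixed the cells and stained their nuclei (final 0.05% Triton X-100, 1% formaldehyde, 1 ug/ml Hoechst), and nuclei were counted on 4× images. Relative viability is the nuclei count in treated wells divided by the count in vehicle wells, and each value is the median of duplicate plates.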
# [2] = compound: COc1cc([C@@H]2c3cc4c(cc3[C@@H](O[C@@H]3O[C@@H]5CO[C@@H](C)O[C@H]5[C@H](O)[C@H]3O)[C@H]3COC(=O)[C@H]23)OCO4)cc(OC)c1O [Etoposide] + Nc1ncn([C@H]2C[C@H](O)[C@@H](CO)O2)c(=O)n1 [Decitabine] (partner 2 µM)
# Procedure, shortened: as §1
# [3] = compound: COc1cc([C@@H]2c3cc4c(cc3[C@@H](O[C@@H]3O[C@@H]5CO[C@@H](C)O[C@H]5[C@H](O)[C@H]3O)[C@H]3COC(=O)[C@H]23)OCO4)cc(OC)c1O [Etoposide] + COc1cccc2cc(-c3nc([C@H]4CC[C@H](C(=O)O)CC4)n4ncnc(N)c34)[nH]c12 [OSI-027] (partner 0.5 µM)
# Procedure, shortened: as §1
# [4] = compound: CC1=C(N=C(N=C1N)[C@H](CC(=O)N)NC[C@@H](C(=O)N)N)C(=O)N[C@@H]([C@H](C2=CN=CN2)OC3C(C(C(C(O3)CO)O)O)OC4C(C(C(C(O4)CO)O)OC(=O)N)O)C(=O)N[C@H](C)[C@H]([C@H](C)C(=O)N[C@@H]([C@@H](C)O)C(=O)NCCC5=NC(=CS5)C6=NC(=CS6)C(=O)NCCC[S+](C)C)O [Bleomycin] + Nc1nc2[nH]cc(CCc3ccc(C(=O)N[C@@H](CCC(=O)O)C(=O)O)cc3)c2c(=O)[nH]1 [Pemetrexed] (partner 0.2 µM); conditions: main component drawn
# Procedure, shortened: as §1
Cell Line,relative viability ([1]; first compound 0.01 µM),relative viability ([1]; first compound 0.03162 µM),relative viability ([1]; first compound 0.1 µM),relative viability ([1]; first compound 0.3162 µM),relative viability ([1]; first compound 1 µM),relative viability ([2]; first compound 0.01 µM),relative viability ([2]; first compound 0.03162 µM),relative viability ([2]; first compound 0.1 µM),relative viability ([2]; first compound 0.3162 µM),relative viability ([2]; first compound 1 µM),relative viability ([3]; first compound 0.01 µM),relative viability ([3]; first compound 0.03162 µM),relative viability ([3]; first compound 0.1 µM),relative viability ([3]; first compound 0.3162 µM),relative viability ([3]; first compound 1 µM),relative viability ([4]; first compound 0.01 µM),relative viability ([4]; first compound 0.03162 µM),relative viability ([4]; first compound 0.1 µM),relative viability ([4]; first compound 0.3162 µM),relative viability ([4]; first compound 1 µM)
A549,0.32,0.209,0.103,0.0476,0.037,0.24,0.326,0.195,0.114,0.0774,–,–,–,–,–,–,–,–,–,–
A-427,0.715,0.83,0.588,0.298,0.221,0.54,0.549,0.477,0.354,0.275,0.472,0.486,0.43,0.396,0.212,0.875,0.917,0.868,0.432,0.288
NCI-H1792,0.348,0.248,–,0.212,0.152,0.515,0.741,–,0.5,0.331,0.509,0.699,0.51,0.696,0.537,0.71,0.756,0.87,0.426,0.312
LCLC-97TM1,0.423,0.458,0.229,0.113,0.0808,0.253,0.222,0.302,0.129,0.11,0.532,0.517,0.403,0.423,0.116,0.169,0.165,0.189,0.141,0.0948
NCI-H1703,0.366,0.465,0.424,0.246,0.179,–,–,–,–,–,–,–,–,–,–,–,–,–,–,–
Calu-6,0.585,0.547,0.505,0.274,0.202,–,–,–,–,–,–,–,–,–,–,–,–,–,–,–
EBC-1,0.641,0.689,0.532,0.405,0.266,–,–,–,–,–,–,–,–,–,–,–,–,–,–,–
NCI-H1299,0.954,0.964,0.936,0.833,0.65,–,–,–,–,–,–,–,–,–,–,–,–,–,–,–
IA-LM,0.674,0.822,0.771,0.681,0.441,–,–,–,–,–,–,–,–,–,–,–,–,–,–,–
NCI-H727,0.681,0.632,0.55,0.689,0.478,1.11,0.985,0.681,0.796,0.63,0.724,0.674,–,0.542,0.513,–,–,–,–,–
NCI-H2228,0.586,0.524,0.776,0.296,0.146,–,–,–,–,–,0.499,0.787,0.276,0.481,0.164,0.317,0.291,0.263,0.199,0.185
CAL-12T,0.716,0.623,0.693,0.368,0.213,–,–,–,–,–,0.527,0.603,0.339,0.555,0.199,0.729,0.482,0.31,0.186,0.156
